Measured values from PubChem BioAssay AID2060890 (Molecular Pharmacology Branch, DTP, NCI, 2025).

Tested on: LG0703-F948-PDC complex spheroid viability
Assay: Anticancer human tumor LG0703-F948-PDC patient-derived lung adenocarcinoma cell line growth inhibition [RAS]
Settings: for viability, T/C: stronger effect = lower value
Outline: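 Agents were tested in combination matrices in half-log decrements from a top concentration at or near clinical Cmax (10 microM if undetermined). Targets were multi-cell spheroids of tumour lines plus HUVEC and MSC stromal cells.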

[1] = curve of first compound, second compound 0.000949 µM
[2] = curve of first compound, second compound 0.003 µM
[3] = curve of first compound, second compound 0.00949 µM
[4] = curve of first compound, second compound 0.03 µM
[5] = curve of first compound, second compound 0.0949 µM
[6] = curve of first compound, second compound 0.3 µM
[7] = second compound 0.000949 µM, first compound 0.00316 µM
[8] = second compound 0.000949 µM, first compound 0.01 µM
[9] = second compound 0.000949 µM, first compound 0.0316 µM
[10] = second compound 0.000949 µM, first compound 0.1 µM
[11] = second compound 0.000949 µM, first compound 0.316 µM
[12] = second compound 0.000949 µM, first compound 1 µM
[13] = second compound 0.003 µM, first compound 0.00316 µM
[14] = second compound 0.003 µM, first compound 0.01 µM
[15] = second compound 0.003 µM, first compound 0.0316 µM
[16] = second compound 0.003 µM, first compound 0.1 µM
[17] = second compound 0.003 µM, first compound 0.316 µM
[18] = second compound 0.003 µM, first compound 1 µM
[19] = second compound 0.00949 µM, first compound 0.00316 µM
[20] = second compound 0.00949 µM, first compound 0.01 µM
[21] = second compound 0.00949 µM, first compound 0.0316 µM
[22] = second compound 0.00949 µM, first compound 0.1 µM
[23] = second compound 0.00949 µM, first compound 0.316 µM
[24] = second compound 0.00949 µM, first compound 1 µM
[25] = second compound 0.03 µM, first compound 0.00316 µM
[26] = second compound 0.03 µM, first compound 0.01 µM
[27] = second compound 0.03 µM, first compound 0.0316 µM
[28] = second compound 0.03 µM, first compound 0.1 µM
[29] = second compound 0.03 µM, first compound 0.316 µM
[30] = second compound 0.03 µM, first compound 1 µM
[31] = second compound 0.0949 µM, first compound 0.00316 µM
[32] = second compound 0.0949 µM, first compound 0.01 µM
[33] = second compound 0.0949 µM, first compound 0.0316 µM
[34] = second compound 0.0949 µM, first compound 0.1 µM
[35] = second compound 0.0949 µM, first compound 0.316 µM
[36] = second compound 0.0949 µM, first compound 1 µM
[37] = second compound 0.3 µM, first compound 0.00316 µM
[38] = second compound 0.3 µM, first compound 0.01 µM
[39] = second compound 0.3 µM, first compound 0.0316 µM
[40] = second compound 0.3 µM, first compound 0.1 µM
[41] = second compound 0.3 µM, first compound 0.316 µM
[42] = second compound 0.3 µM, first compound 1 µM
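Also: spheroids exposed to agents for 7 days.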
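For viability, T/C in this document: 100% = DMSO vehicle wells.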

CCN1CCN(Cc2ccc(Nc3ncc(F)c(-c4cc(F)c5nc(C)n(C(C)C)c5c4)n3)nc2)CC1 + CCn1c(-c2cccnc2C(C)OC)c2c3cc(ccc31)N1CCOC(CC(NC(=O)C(C(C)C)N(C)C(=O)C3(F)CCN(C(=O)C#CC(C)(C)N(C)C)CC3)C(=O)N3CCCC(N3)C(=O)OCC(C)(C)C2)C1
IC50 [1]: > 1000 nM | IC50 [2]: > 1000 nM | IC50 [3]: > 1000 nM | IC50 [4]: > 1000 nM | IC50 [5]: > 1000 nM | IC50 [6]: < 3.16 nM | viability, T/C [7]: 103% | viability, T/C [8]: 111% | viability, T/C [9]: 91.9% | viability, T/C [10]: 81.8% | viability, T/C [11]: 79.4% | viability, T/C [12]: 80.5% | viability, T/C [13]: 101% | viability, T/C [14]: 97.3% | viability, T/C [15]: 81.1% | viability, T/C [16]: 104% | viability, T/C [17]: 111% | viability, T/C [18]: 76.8% | viability, T/C [19]: 101% | viability, T/C [20]: 97.2% | viability, T/C [21]: 93% | viability, T/C [22]: 108% | viability, T/C [23]: 82.4% | viability, T/C [24]: 94.8% | viability, T/C [25]: 96.9% | viability, T/C [26]: 98% | viability, T/C [27]: 95.5% | viability, T/C [28]: 75.4% | viability, T/C [29]: 81.2% | viability, T/C [30]: 79% | viability, T/C [31]: 90.7% | viability, T/C [32]: 86.8% | viability, T/C [33]: 86.3% | viability, T/C [34]: 90.1% | viability, T/C [35]: 84.8% | viability, T/C [36]: 74.8% | viability, T/C [37]: 54.6% | viability, T/C [38]: 40% | viability, T/C [39]: 56.4% | viability, T/C [40]: 54.7% | viability, T/C [41]: 59.8% | viability, T/C [42]: 54.5%

CC(C)n1nc(-c2ccc3oc(N)nc3c2)c2c(N)ncnc21
viability, T/C (compound 0.000316 µM): 104% [middle of 4 runs] | viability, T/C (compound 0.00316 µM): 65.1% [middle of 4 runs] | viability, T/C (compound 0.01 µM): 40.8% [middle of 4 runs] | viability, T/C (compound 0.0316 µM): 23.2% [middle of 4 runs] | viability, T/C (compound 0.1 µM): 17% [middle of 4 runs] | IC50 (curve of compound): 6.31 nM [middle of 4 runs]

CC(C)n1nc(-c2ccc3oc(N)nc3c2)c2c(N)ncnc21 + CCn1c(-c2cccnc2C(C)OC)c2c3cc(ccc31)N1CCOC(CC(NC(=O)C(C(C)C)N(C)C(=O)C3(F)CCN(C(=O)C#CC(C)(C)N(C)C)CC3)C(=O)N3CCCC(N3)C(=O)OCC(C)(C)C2)C1
IC50 [1]: 6.03 nM | IC50 [2]: 8.31 nM | IC50 [3]: 7.72 nM | IC50 [4]: 8.1 nM | IC50 [5]: 1.85 nM | IC50 [6]: < 0.316 nM | viability, T/C (second compound 0.000949 µM, first compound 0.000316 µM): 105% | viability, T/C (second compound 0.000949 µM, first compound 0.001 µM): 72.7% | viability, T/C [7]: 64.1% | viability, T/C [8]: 43.5% | viability, T/C [9]: 27% | viability, T/C [10]: 19.9% | viability, T/C (second compound 0.003 µM, first compound 0.000316 µM): 87% | viability, T/C (second compound 0.003 µM, first compound 0.001 µM): 79.4% | viability, T/C [13]: 65% | viability, T/C [14]: 49.8% | viability, T/C [15]: 25.5% | viability, T/C [16]: 17.9% | viability, T/C (second compound 0.00949 µM, first compound 0.000316 µM): 88.2% | viability, T/C (second compound 0.00949 µM, first compound 0.001 µM): 83.8% | viability, T/C [19]: 59.9% | viability, T/C [20]: 48.2% | viability, T/C [21]: 28.7% | viability, T/C [22]: 17.2% | viability, T/C (second compound 0.03 µM, first compound 0.000316 µM): 92.4% | viability, T/C (second compound 0.03 µM, first compound 0.001 µM): 87.6% | viability, T/C [25]: 68.8% | viability, T/C [26]: 46.8% | viability, T/C [27]: 23.9% | viability, T/C [28]: 15.6% | viability, T/C (second compound 0.0949 µM, first compound 0.000316 µM): 67.4% | viability, T/C (second compound 0.0949 µM, first compound 0.001 µM): 57.5% | viability, T/C [31]: 41.2% | viability, T/C [32]: 36.8% | viability, T/C [33]: 18.5% | viability, T/C [34]: 13.2% | viability, T/C (second compound 0.3 µM, first compound 0.000316 µM): 43.3% | viability, T/C (second compound 0.3 µM, first compound 0.001 µM): 36.8% | viability, T/C [37]: 29.3% | viability, T/C [38]: 21.9% | viability, T/C [39]: 11.7% | viability, T/C [40]: 8.29%

Nc1ccn(C2OC(CO)C(O)C2(F)F)c(=O)n1 (configuration not stated) + CCn1c(-c2cccnc2C(C)OC)c2c3cc(ccc31)N1CCOC(CC(NC(=O)C(C(C)C)N(C)C(=O)C3(F)CCN(C(=O)C#CC(C)(C)N(C)C)CC3)C(=O)N3CCCC(N3)C(=O)OCC(C)(C)C2)C1
IC50 [1]: 7.67 nM | IC50 [2]: 9.28 nM | IC50 [3]: 7.52 nM | IC50 [4]: 6.69 nM | IC50 [5]: < 3.16 nM | IC50 [6]: < 3.16 nM | viability, T/C [7]: 79.2% | viability, T/C [8]: 40.2% | viability, T/C [9]: 36.9% | viability, T/C [10]: 32% | viability, T/C [11]: 32% | viability, T/C [12]: 30% | viability, T/C [13]: 76.2% | viability, T/C [14]: 48.3% | viability, T/C [15]: 38.9% | viability, T/C [16]: 29.8% | viability, T/C [17]: 38.9% | viability, T/C [18]: 31.3% | viability, T/C [19]: 70.7% | viability, T/C [20]: 43.2% | viability, T/C [21]: 38% | viability, T/C [22]: 36.9% | viability, T/C [23]: 43.9% | viability, T/C [24]: 30.9% | viability, T/C [25]: 66% | viability, T/C [26]: 41.4% | viability, T/C [27]: 34% | viability, T/C [28]: 30% | viability, T/C [29]: 34.7% | viability, T/C [30]: 28.9% | viability, T/C [31]: 49.3% | viability, T/C [32]: 33.2% | viability, T/C [33]: 26.7% | viability, T/C [34]: 30% | viability, T/C [35]: 27.8% | viability, T/C [36]: 22.2% | viability, T/C [37]: 31.7% | viability, T/C [38]: 22.4% | viability, T/C [39]: 27.9% | viability, T/C [40]: 27.2% | viability, T/C [41]: 31.4% | viability, T/C [42]: 19.4%
